From the NIST ThermoML archive (doi:10.1021/je201334p)
± gives the expanded uncertainty stated by the source.

How the values were obtained:
[1] = xn = mol fraction of the nth substance listed; settings: 101 kPa, Liquid; for speed of sound: Sing-around technique in a fixed-path interferometer; for mass density: Vibrating tube method
[2] = refractive index (Na D-line) (dimensionless); xn = mol fraction of the nth substance listed; settings: 101 kPa, Liquid, Standard Abbe refractometry

CCCCn1cc[n+](C)c1.N#CN=C=[N-] [1-butyl-3-methylimidazolium dicyanamide] + O
Settings	mass density, 288.15 K [kg/m3]	mass density, 298.15 K [kg/m3]	mass density, 308.15 K [kg/m3]	refractive index, 288.15 K	refractive index, 298.15 K	refractive index, 308.15 K	speed of sound, 288.15 K [m/s]	speed of sound, 298.15 K [m/s]	speed of sound, 308.15 K [m/s]
[1], x2 = 0	1066.58 ± 1.3	1060.17 ± 1.2	1053.83 ± 1.2	–	–	–	1764.3 ± 2.3	1738.1 ± 2.3	1713.1 ± 2.3
[1], x2 = 0.1088	1065.59 ± 1	1059.16 ± 1	1052.79 ± 0.99	–	–	–	1762 ± 2.1	1736.9 ± 2.1	1712.4 ± 2.1
[1], x2 = 0.1227	1065.44 ± 0.99	1059.01 ± 0.98	1052.64 ± 0.96	–	–	–	1761.9 ± 2.1	1736.8 ± 2.1	1712.2 ± 2.1
[1], x2 = 0.2017	1064.62 ± 0.84	1058.16 ± 0.83	1051.77 ± 0.81	–	–	–	1760.9 ± 2	1735.9 ± 2	1711.6 ± 1.9
[1], x2 = 0.2943	1063.46 ± 0.68	1056.98 ± 0.67	1050.55 ± 0.66	–	–	–	1759.9 ± 1.8	1735 ± 1.8	1710.7 ± 1.8
[1], x2 = 0.3952	1061.88 ± 0.52	1055.35 ± 0.51	1048.88 ± 0.51	–	–	–	1758.3 ± 1.7	1734 ± 1.7	1710 ± 1.7
[1], x2 = 0.503	1059.83 ± 0.38	1053.24 ± 0.38	1046.7 ± 0.37	–	–	–	1756.8 ± 1.5	1733 ± 1.5	1709.4 ± 1.5
[1], x2 = 0.5985	1057.37 ± 0.28	1050.71 ± 0.28	1044.09 ± 0.27	–	–	–	1755.5 ± 1.4	1732.1 ± 1.4	1709 ± 1.4
[1], x2 = 0.7032	1053.63 ± 0.19	1046.89 ± 0.19	1040.15 ± 0.19	–	–	–	1751.4 ± 1.3	1729.1 ± 1.3	1706.9 ± 1.3
[1], x2 = 0.805	1047.26 ± 0.13	1040.5 ± 0.13	1033.69 ± 0.12	–	–	–	1738.5 ± 1.2	1718.6 ± 1.2	1698.2 ± 1.2
[1], x2 = 0.9006	1035.92 ± 0.08	1029.6 ± 0.08	1023.11 ± 0.08	–	–	–	1694.1 ± 1.1	1682.2 ± 1.1	1668.8 ± 1.1
[1], x2 = 0.9503	1024.07 ± 0.07	1018.75 ± 0.07	1013.06 ± 0.07	–	–	–	1630.6 ± 1.1	1630.5 ± 1	1627.4 ± 1.1
[2], x2 = 0	–	–	–	1.51213 ± 0.00065	1.50893 ± 0.00065	1.50578 ± 0.00065	–	–	–
[2], x2 = 0.1088	–	–	–	1.5099 ± 0.00062	1.50673 ± 0.00063	1.50348 ± 0.00063	–	–	–
[2], x2 = 0.1227	–	–	–	1.50953 ± 0.00062	1.50631 ± 0.00062	1.50321 ± 0.00062	–	–	–
[2], x2 = 0.2017	–	–	–	1.50758 ± 0.00059	1.50443 ± 0.00061	1.50114 ± 0.00062	–	–	–
[2], x2 = 0.2943	–	–	–	1.50476 ± 0.00057	1.50161 ± 0.00059	1.49821 ± 0.00061	–	–	–
[2], x2 = 0.3952	–	–	–	1.50075 ± 0.00055	1.49756 ± 0.00057	1.49443 ± 0.00059	–	–	–
[2], x2 = 0.503	–	–	–	1.49536 ± 0.00051	1.49223 ± 0.00055	1.48897 ± 0.0006	–	–	–
[2], x2 = 0.5985	–	–	–	1.48855 ± 0.00049	1.48541 ± 0.00054	1.48225 ± 0.00061	–	–	–
[2], x2 = 0.7032	–	–	–	1.47799 ± 0.00043	1.47495 ± 0.00053	1.47147 ± 0.00073	–	–	–
[2], x2 = 0.805	–	–	–	1.46004 ± 0.00045	1.45694 ± 0.00052	1.45386 ± 0.00088	–	–	–
[2], x2 = 0.9006	–	–	–	1.42867 ± 0.00056	1.42613 ± 0.00047	1.42382 ± 0.00096	–	–	–
[2], x2 = 0.9503	–	–	–	1.39733 ± 0.00096	1.3952 ± 0.00045	1.39322 ± 0.0013	–	–	–

CCCCn1cc[n+](C)c1.O=S(=O)([O-])C(F)(F)F [1-butyl-3-methylimidazolium trifluoromethanesulfonate] + O
Settings	mass density, 288.15 K [kg/m3]	mass density, 298.15 K [kg/m3]	mass density, 308.15 K [kg/m3]	refractive index, 288.15 K	refractive index, 298.15 K	refractive index, 308.15 K	speed of sound, 288.15 K [m/s]	speed of sound, 298.15 K [m/s]	speed of sound, 308.15 K [m/s]
[1], x2 = 0	1307.5 ± 0.63	1299.55 ± 0.62	1291.62 ± 0.61	–	–	–	1414.3 ± 1.4	1391.4 ± 1.4	1369.1 ± 1.4
[1], x2 = 0.1348	1303.64 ± 0.53	1295.68 ± 0.52	1287.74 ± 0.51	–	–	–	1419.7 ± 1.3	1396.7 ± 1.3	1374.8 ± 1.3
[1], x2 = 0.2028	1301.3 ± 0.48	1293.3 ± 0.47	1285.33 ± 0.47	–	–	–	1422.9 ± 1.2	1400.2 ± 1.2	1378.1 ± 1.2
[1], x2 = 0.2056	1301.2 ± 0.48	1293.22 ± 0.47	1285.23 ± 0.46	–	–	–	1423.2 ± 1.2	1400.9 ± 1.2	1379.4 ± 1.2
[1], x2 = 0.3083	1296.7 ± 0.41	1288.66 ± 0.41	1280.65 ± 0.4	–	–	–	1429.3 ± 1.2	1406.7 ± 1.2	1384.6 ± 1.2
[1], x2 = 0.4985	1284.57 ± 0.31	1276.45 ± 0.31	1268.32 ± 0.31	–	–	–	1445 ± 1.1	1422.8 ± 1.1	1400.9 ± 1.1
[1], x2 = 0.6062	1273.42 ± 0.27	1265.25 ± 0.26	1257.08 ± 0.26	–	–	–	1458 ± 1.1	1436.4 ± 1.1	1414.8 ± 1
[1], x2 = 0.7015	1258.59 ± 0.23	1250.44 ± 0.23	1242.22 ± 0.23	–	–	–	1473.8 ± 1	1453.1 ± 1	1432 ± 1
[1], x2 = 0.8064	1231.3 ± 0.2	1223.33 ± 0.2	1215.23 ± 0.21	–	–	–	1496.3 ± 1	1478.8 ± 1	1460 ± 1
[1], x2 = 0.8998	1180.1 ± 0.16	1172.98 ± 0.16	1165.56 ± 0.16	–	–	–	1523.9 ± 1	1513.4 ± 1	1500.5 ± 1
[1], x2 = 0.9309	1149.84 ± 0.15	1143.39 ± 0.15	1136.56 ± 0.15	–	–	–	1533.1 ± 1	1527.6 ± 1	1519.2 ± 1
[1], x2 = 0.9548	1116.26 ± 0.15	1110.62 ± 0.15	1104.51 ± 0.16	–	–	–	1540 ± 1	1540.1 ± 1	1536.7 ± 1
[2], x2 = 0	–	–	–	1.44032 ± 0.00053	1.43755 ± 0.00053	1.43475 ± 0.00053	–	–	–
[2], x2 = 0.1348	–	–	–	1.43903 ± 0.00051	1.43626 ± 0.00052	1.43343 ± 0.00052	–	–	–
[2], x2 = 0.2028	–	–	–	1.43815 ± 0.00051	1.43535 ± 0.00051	1.43259 ± 0.00051	–	–	–
[2], x2 = 0.2056	–	–	–	1.4381 ± 0.00051	1.4353 ± 0.00051	1.43253 ± 0.00051	–	–	–
[2], x2 = 0.3083	–	–	–	1.43654 ± 0.00049	1.43373 ± 0.00051	1.4309 ± 0.00053	–	–	–
[2], x2 = 0.4985	–	–	–	1.43224 ± 0.00047	1.4294 ± 0.0005	1.42655 ± 0.00054	–	–	–
[2], x2 = 0.6062	–	–	–	1.42835 ± 0.00047	1.42546 ± 0.0005	1.42268 ± 0.00053	–	–	–
[2], x2 = 0.7015	–	–	–	1.42301 ± 0.00044	1.42021 ± 0.00049	1.41759 ± 0.00056	–	–	–
[2], x2 = 0.8064	–	–	–	1.41332 ± 0.00041	1.41072 ± 0.00048	1.40803 ± 0.0007	–	–	–
[2], x2 = 0.8998	–	–	–	1.39564 ± 0.0004	1.39323 ± 0.00046	1.39103 ± 0.00059	–	–	–
[2], x2 = 0.9309	–	–	–	1.38516 ± 0.00041	1.3829 ± 0.00045	1.38091 ± 0.00052	–	–	–
[2], x2 = 0.9548	–	–	–	1.37365 ± 0.00045	1.37157 ± 0.00045	1.36969 ± 0.0007	–	–	–
